Converted amounts (≈) assume the structure as drawn.
Legend:
[1] = test system: Leishmania donovani; test: Antileishmanial activity against Leishmania donovani MHOM/ET/67/L82 measured after 72 hrs by alamar blue dye based fluorimetry analysis; format: functional, organism-based; conditions: MHOM/ET/67/L82, 72 h
[2] = test system: Clavispora lusitaniae; test: Antifungal activity against Candida lusitaniae DSM 70102 assessed as fungal growth inhibition by EUCAST method; format: functional
[3] = test system: Trypanosoma brucei rhodesiense; test: Antitrypanosomal activity against Trypanosoma brucei rhodesiense STI B900 measured after 72 hrs by alamar blue dye based fluorimetry analysis; format: functional, organism-based; conditions: STI B900, 72 h
[4] = test system: Trypanosoma cruzi; test: Antitrypanosomal activity against Trypanosoma cruzi Tulahuen C4 infected in rat L6 cells measured after 96 hrs by inverted microscopy analysis; format: functional, organism-based; conditions: Tulahuen C4, L6, 96 h
[5] = test system: L6; test: Cytotoxicity against rat L6 cells measured after 72 hrs by alamar blue dye based fluorimetry analysis; format: cell-based; conditions: L6, 72 h
[6] = test system: Micrococcus luteus; test: Antibacterial activity against Micrococcus luteus assessed as bacterial growth inhibition by CLSI protocol based broth microdilution assay; format: functional
[7] = test system: Escherichia coli; test: Antibacterial activity against Escherichia coli OP50 assessed as bacterial growth inhibition by CLSI protocol based broth microdilution assay; format: functional
[8] = test system: Plasmodium falciparum; test: Antiplasmodial activity against Plasmodium falciparum NF54 measured after 24 hrs in presence of [3H] hypoxanthine by liquid scintillation counter analysis; format: functional, organism-based

`N=C(N)NCCCC[C@H]1NC(=O)[C@H](Cc2c[nH]c3ccccc23)NC(=O)[C@H](Cc2ccc(O)cc2)NC(=O)[C@@H](Cc2c[nH]c3ccccc23)NC(=O)[C@@H](Cc2ccc(O)cc2)NC(=O)[C@@H](CCCCNC(=N)N)NC1=O` gave an IC50 [1] greater than 100 µM, an MIC [2] greater than 96 µM and an IC50 [3] of 13 µM. It also gave an IC50 [4] of 71 µM, an IC50 [5] of 83 µM and an MIC [6] of 3 µM (≈ 3.12 µg/mL). For the same molecule, the MIC [7] was 24 µM (≈ 24.9 µg/mL) and the IC50 [8] was 27 µM.

In the case of `CC1(C)S[C@@H]2[C@H](NC(=O)[C@H](N)c3ccccc3)C(=O)N2[C@H]1C(=O)O` [AMPICILLIN], the MIC [6] is reported as 4.2 µM (≈ 1.47 µg/mL).

`O=C(N[C@H](CO)[C@H](O)c1ccc([N+](=O)[O-])cc1)C(Cl)Cl` [CHLORAMPHENICOL] gave an MIC [7] of 0.6 µM (≈ 0.194 µg/mL).

`COc1cc([C@@H]2c3cc4c(cc3[C@H](O)[C@H]3COC(=O)[C@H]23)OCO4)cc(OC)c1OC` [PODOFILOX] gave an IC50 [5] of 0.007 µM.

`C[C@@H]1[C@H](O)[C@@H](C)/C=C/C=C/C=C/C=C/C=C/C=C/C=C/[C@H](O[C@@H]2O[C@H](C)[C@@H](O)[C@H](N)[C@@H]2O)C[C@@H]2O[C@](O)(C[C@@H](O)C[C@@H](O)[C@H](O)CC[C@@H](O)C[C@@H](O)CC(=O)O[C@H]1C)C[C@H](O)[C@H]2C(=O)O` [AMPHOTERICIN B] showed an MIC [2] of 0.42 µM (≈ 0.388 µg/mL).
